Assay results published in patent publication US7256174B2, “Somatostatin and somatostatin agonists for treating insulin insensitivity and Syndrome X” (Societe de Conseils de Recherches et d'Applications …, priority 1997, dated 2007).
Bridge positions count the residues as written; N and C are the ends. Square brackets hold non-standard residues; d marks the D form. Peptide text beside a SMILES is read from it.

Legend:
[1] = Lipidemia study, plasma glycerol and triglycerides; format: in vivo, Obese (fa/fa) Zucker rats
Method: Obese (fa/fa) Zucker rats were treated as in example 1 above. On the last day of treatment (day 6), food was removed at 5:00 p.m., and the rats were fasted overnight. At 9:00 a.m. the next day, the animals were subjected to a glucose challenge, given as 0.8 gram/kg of glucose orally. Periodic 400 μl of blood samples were taken from the tail vein (Peterson, R. G., ILAR News, 32:16-19 (1990)) 60 min. and 30 min. before and at 30, 60, 90, and 120 min. after the administration of the glucose challenge (0.8 gram/kg orally). Aprotinin (Traysylol, Bayer UK, Hayward's Health, W. Sussex, U.K.) and heparin (Sigma Chemical Co., Poole, Dorset, U.K.) were added to the blood samples to a final concentration of 400 KIU/ml and 100 units/ml, respectively. Plasma fractions were prepared from these samples by centrifugation at 4000×G in a microfuge, for the estimation of triglycerides and glycerol. Samples were then stored at −80° C. until assayed.
Plasma glycerol and triglycerides were determined using the Sigma Enzymatic (Tinder) calorimetric assay kit (Cat #337-B, Sigma Chemical Co., Poole, Dorset, U.K.) and measuring absorbance at 540 nm in a spectrophotometer.

[2] = Weight loss study, chronic (6 day) treatment; conditions: 3 mg/kg s.c. twice a day
[3] = Insulin sensitivity study, oral glucose challenge after chronic treatment; format: in vivo, fatty (fa/fa) Zucker rats; conditions: 3 mg/kg s.c. twice daily, 7 days
Method: Male fatty Zucker rats (Harlan-Olac, Bicester, Oxon, U.K.), which were 15-17 weeks old, were randomly divided into two groups. The animals were house in pairs in a normal 12 hour light:12 hour darkness cycle at 20±2° C. and fed a standard laboratory rat diet (Beekay rat and mouse diet, Bantin & Kingman, Hull, Humberside, U.K.) ad libitum. For the group assigned to receive drug treatment, the rats received BIM-23268C at 3 mg/kg, by subcutaneous injection, twice a day at 10:00 AM and 5:00 PM. The other group, the control group, was treated with a subcutaneous injection of 0.1 ml/100 g of saline twice a day at 10:00 AM and 5:00 PM. […] On the last day of treatment, at 5:00 PM food was removed, and the rats were fasted overnight.
A method for assessing insulin sensitivity is to administer an oral glucose challenge and monitoring the secretion of insulin and disposal of glucose from the blood stream over a 240 min period (Bergman, R. N., et al., Endocrine Review 6:45-86 (1985)). […] 20 μl blood samples were taken from tail vein (Abdel-Halim, S. M., et al., Diabetes 43:281-288 (1994)) at −60 min, −30 min, 0 min, 30 min, 60 min, 90 min, 120 min, and 240 min.
The 20 μl samples were taken into 380 μl of hemolysis reagents (Sigma, Poole, Dorset, UK) containing 50 mg/liter of digitonin (Cat# D-1407) and 100 mg/liter of Maleimide (M-3766). From this, 100 μl of the hemolysed blood sample was added to 0.9 ml of Tinder reagent (Sigma Enzymatic calorimetric assay for blood glucose, Cat# 315-100, Sigma Chemical Co. Ltd, Poole, Dorset, UK). Blood glucose was determined according to vendor's recommendation at 505 nm.
Insulin was measured by the conventional radioimmunoassay method as described (Dunmore, S., & Beloff-Chain, A., J Endocrinol. 92:15-21 (1982)). Samples were assayed in triplicates with a 1:30000 dilution of an insulin antiserum (from guinea pig)raised in the laboratory (Dunmore, S. J., et al., J. Endocrinol. 137:375-381 (1993), and using ^125I-labelled bovine insulin, iodinated by the chloramine T method (Sambrook, et al., Molecular Cloning—A Laboratory Manual, Ed. 2., Cold Spring Harbor Laboratory Press, 1989). Rat insulin (2000U/0.1 ml, Novo Nordisk Laboratories, Basingstoke, Hants, U.K.) was used as a standard in the assay. The standards and samples were diluted in assay buffer containing NaH2PO4 5.7 g/L, bovine serum albumin (Sigma A4378, Sigma Chemical Co. Ltd., Poole, Dorset, UK) 5.0 g/L, NaN3 1.0 g/L buffered to pH 7.4). Antibody-bound insulin was separated on from free insulin by the addition of a second antibody (donkey anti-guinea pig Ig) coated on cellulose, Sac-Cel (IDS, Boldon, Tyne & Wear, UK). The antibody-bound insulin precipitate was separated by centrifugation. Counts bound were measured on an LKB Rackgamma solid scintillation counter.

[4] = 3 mg/kg s.c. twice a day, six days, samples 30 and 60 minutes before oral glucose challenge
[5] = throughout the 2-hour test period after oral glucose challenge
[6] = 0.8 g/kg oral glucose challenge

Structure (SMILES): C[C@@H](O)[C@@H]1NC(=O)[C@H](CCCCN)NC(=O)[C@@H](Cc2c[nH]c3ccccc23)NC(=O)[C@H](Cc2ccccc2)NC(=O)[C@H](Cc2ccccc2)NC(=O)[C@@H](N)CSSC[C@@H](C(N)=O)NC(=O)[C@H](Cc2ccccc2)NC1=O [BIM-23268, H-Cys-Phe-Phe-D-Trp-Lys-Thr-Phe-Cys-NH2] (H-CFF[dW]KTFC-NH2; disulfide 1-8)
- plasma glycerol [1, 4]: significantly lowered
- plasma triglycerides [1, 4]: significantly lowered
- reducing hypertriglyceridemia ([1]; 6-day treatment at 3 mg/kg s.c. twice a day): effective
- plasma glycerol [1, 5]: significantly lower
- plasma triglycerides [1, 5]: significantly lower
- body weight gain versus control ([2]; six days): lower
- toxic effect / appearance of treated group ([2]; six days): appeared healthy
- average food consumption ([2]; six days (control 26.0)): 25.9 g/rat/day
- difference in amount of food consumed over the entire treatment period ([2]; six days, vs control): no difference
- group mean weight after six days ([2]; after six days (control 414.09 to 418.89)): 413.6
- group mean weight at the start of the trial ([2]; start of trial): 413.6
- hyperinsulinemia [3]: suppressing
- insulin-sensitivity [3]: improvement
- glucose tolerance [3, 6]: did not show an impairment
- plasma glucose profile versus untreated group [3, 6]: not significantly different
- glucose stimulated insulin secretion to the glucose challenge ([3]; 0.8 g/kg oral glucose challenge, vs saline control): significant suppression
